Reference: ChEMBL document CHEMBL3217661, “Selective inhibition of E. coli 1-deoxy-D-xylulose-5-phosphate synthase by acetylphosphonates()” (Medchemcomm, 2012)

Tests used:
[1] = Inhibition of ThDP-dependent Saccharomyces cerevisiae transketolase by spectrophotometric coupled assay
[2] = biological target: T1, 1-deoxy-D-xylulose-5-phosphate synthase (Escherichia coli (strain K12), UniProt P77488); experiment: Competitive inhibition of ThDP-dependent Escherichia coli DXP synthase using pyruvate as substrate assessed as NADPH consumption by spectrophotometric coupled assay
T1 sequence (P77488 whole entry): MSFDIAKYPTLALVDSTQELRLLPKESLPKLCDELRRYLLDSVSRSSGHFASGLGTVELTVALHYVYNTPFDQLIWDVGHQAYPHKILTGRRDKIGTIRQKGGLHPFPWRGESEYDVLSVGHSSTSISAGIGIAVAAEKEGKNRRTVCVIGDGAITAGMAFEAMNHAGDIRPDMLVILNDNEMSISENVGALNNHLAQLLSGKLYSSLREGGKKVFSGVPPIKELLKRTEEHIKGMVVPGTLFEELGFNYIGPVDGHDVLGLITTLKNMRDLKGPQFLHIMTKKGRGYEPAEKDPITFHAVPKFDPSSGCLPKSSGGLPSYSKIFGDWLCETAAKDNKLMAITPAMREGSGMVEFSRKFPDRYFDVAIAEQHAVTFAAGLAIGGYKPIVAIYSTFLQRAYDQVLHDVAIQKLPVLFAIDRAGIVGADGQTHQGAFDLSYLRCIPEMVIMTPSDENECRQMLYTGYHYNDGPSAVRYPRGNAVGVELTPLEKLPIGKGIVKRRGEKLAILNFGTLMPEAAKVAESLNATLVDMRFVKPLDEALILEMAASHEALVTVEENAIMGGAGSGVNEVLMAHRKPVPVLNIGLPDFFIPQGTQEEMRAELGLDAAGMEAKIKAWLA

[3] = Inhibition of ThDP-dependent pyruvate dehydrogenase E1 subunit in porcine heart using pyruvate as substrate by spectrophotometric coupled assay; design: species or system Sus scrofa
[4] = Selectivity ratio of Ki for pyruvate dehydrogenase E1 subunit in porcine heart to Ki for Escherichia coli DXP synthase

Row | SMILES | Ki [1] [µM] | Ki [2] [µM] | Ki [3] [µM] | Ratio Ki [4]
1 | CCCCC(=O)P(=O)(O)OC | > 1000 | > 1000 | > 1000 | 
2 | COP(=O)(O)C(C)=O | > 1000 | 0.96 | 29.9 | 31
3 | CCC(=O)P(=O)(O)OC | > 1000 | 258 | > 1000 | 
4 | CCOP(=O)(O)C(C)=O | > 1000 | 6.7 | 46.6 | 
5 | CCCC(=O)P(=O)(O)OC | > 1000 | > 1000 | > 1000 | 
6 | CCCCOP(=O)(O)C(C)=O | > 1000 | 5.6 | 335 | 60
